Entries after “also recorded” stand apart in the source; their conditions may differ. Blank lines part the entries; values can stand above or below the molecule they belong to.
Columns and labels:
[1] = system: guinea pig tracheal rings; assay: Airway bioassay: relaxation of contracted guinea pig tracheal rings (isometric tension); assay type: cell-based; conditions: for IC50: Cavia porcellus, guinea pig tracheal rings contracted with 3 μM histamine, mean ± S.D., read-out: Inhibitory Concentrations Inducing 50% Relaxation (IC50); for inhibition of relaxation responses to SNOAC: airways contracted with 3 uM histamine, 10^-5 M and 10^-4 M methylene blue; for inhibition of relaxation responses to SNOAC / attenuation of the actions (relaxation) of SNOAC: 10^-4 M hemoglobin; for attenuation of the actions (relaxation) of SNOAC: guinea pig airways, 10^-5 and 10^-4 M methylene blue
Description: (§1) Male Hartley guinea pigs (500-600 g) were anesthetized by inhalation of enflurane to achieve a surgical plane of anesthesia. The trachea were excised and placed in Kreb's-Henseleit buffer (mM): NaCl 118, CKl 5.4, NaH2 PO4 1.01, glucose 11.1, NaHCO3 25.0, MgSO4 0.69, CaCl 2.32, pH 7.4. The airways were then dissected free from surrounding fat and connective tissue and cut into rings 2-4 mm in diameter. The trachea rings were placed in sterile Medium 199 containing 1% antibiotic/antimycotic mixture in an atmosphere of 5% CO2, 45% O2, […], and kept for up to 48 hours in tissue culture. The experiments were also performed on human airway smooth muscle, isolated by the same method.
(§2) Trachea and aortic rings were mounted on stirrups and connected to transducers (model FOT3C Grass) with which changes in isometric tension were measured. Rings were then suspended in 10 cc of oxygenareal (95% O2, 5% CO2) buffer. Conditions for both the vessel and airway bioassays were established according to standard methodologies as described in Cooke et al., Am. J. Physiol. 259(3):H804-H812 (1990).
(§3) In airway experiments, the tings were equilibrated for 60 minutes under a load of 1 gm and then primed twice by exposure to 100 μmethacholine. Tissues were contracted with various agonists at concentrations determined to generate 50% (±16% S.D.) of maximum tone, after which the effects of different thiols and their S-nitrosylated derivatives were assessed. In selected experiments, relaxation responses were determined in the presence of hemoglobin, or after rings had been preexposed to methylene blue for 30 minutes.
Dose-response relationships to SNOAC were obtained in airways contracted with 3 uM histamine, and repeated in the presence of 10^-4 M hemoglobin, 10^-5 M methylene blue, and 10^-4 M methylene blue. […] Cyclic GMP determinations were performed in duplicate for each experiment.

[2] = cited from earlier work
[3] = system: human airway smooth muscle; assay: Airway bioassay: relaxation of contracted human tracheal/airway rings; assay type: cell-based; conditions: for IC50: human airways 5-12 mm outer diameter, contracted with methacholine (7 μM); for IC50 compared with theophylline: human airways contracted with methacholine (7 μM); for relaxant effect on human trachea, comparison with other agents: human tracheal rings, FIGS. 11-14; for inhibition of S-nitrosothiol (SNOAC)-induced relaxation in human airways: methylene blue 10^-4, LY83583 5×10^-5, hemoglobin 100 μM
Description: as §1, §2, §3
(§4) The effect of guanylate cyclase inhibitors upon S-nitrosothiol-induced airway relaxation and cGMP increase was assessed, using the previously described bioassay and cyclic nucleotide assay procedures. Bronchodilator effects of S-NOGSH and SNOAC were examined in human airways (5-12 mm outer diameter).

[4] = Stability in the presence of oxygen and redox metals; assay type: physicochemical; conditions: 95% O2, pH 7.4
Description: The stability of SNOAC and SNOGSH in the presence of oxygen and redox metals was assessed.
In addition, S-nitrosothiol stability was assessed in the presence of various redox metals or chelating agents. These compounds were resistant to decomposition when Cu^+, Fe^2+, or Cu^2+ (50 μM) or defuroxamine or EDTA S-nitrosothiols are not rapidly inactivated in the presence of oxygen, nor do they decompose in the presence of redox metals.

[5] = system: cyclic GMP (guanylate cyclase) in tracheal rings; assay: Cyclic GMP radioimmunoassay in guinea pig tracheal rings; assay type: cell-based
Description: (§5) The mechanism by which S-nitrosothiols relax vascular smooth muscle is felt to be through activation of guanylate cyclase with consequent increase in intracellular cyclic GMP (Ignarro et al., Circ. Res. 65:1-21 (1989); Loscalzo et al., J. Pharmacol. Exp. Ther. 249(3):726-729 (1989)). In order to assess this mechanism in airways, tracheal rings in Kreb's-Henseleit solution were exposed to 100 μM S-nitroso-N-acetylcysteine (SNOAC) for 90 seconds. Reactions were terminated by the addition of ice cold 10% trichloracetic acid and rapid freezing in ethanol-saturated dry ice.
(§6) In selected experiments, rings were preexposed to the guanylate cyclase inhibitor, methylene blue (10^-4 M) for 30 minutes. Tissues were then individually pulverized with a glass (s) homogenizer and centrifuged at 8000 g for 5 minutes. The clear supernatant was extracted with water-saturated ether and assayed for cyclic GMP by radioimmunoassay. Acetylation of samples with acetic anhydride was used to increase the sensitivity of the assay and the determination of recoveries was aided by the use of [^3 H] cyclic GMP.

cGMP in human airways = assay: Cyclic GMP radioimmunoassay in human airways; assay type: cell-based
Description: as §5, §6, §4

[6] = system: gastrointestinal smooth muscle (Sphincter of Oddi, duodenum, colon); assay: Patient studies: topical administration during endoscopy, gastrointestinal smooth muscle motility; assay type: in vivo, human; conditions: patients
Description: Patient studies, conducted by the inventors, have measured the efficacy of S-nitrosothiols both in facilitating cannulation of the sphincter of Oddi, and in decreasing colon motility to allow for removal of colon polyps. […] The same type of effects would occur with the use of other cell impermeable S-nitrosothiols, such as S-nitroso-glutathione.

hemoglobin = biological target: T1, hemoglobin (Bos taurus, UniProt P01966+P02070); assay: Reaction of S-nitrosothiol with hemoglobin (UV spectrum, oxygen association curve); assay type: biochemical, bovine; conditions: SNOAC over 15 minutes, NO from NaNO2 in 0.5N HCl
T1 construct: purchased Sigma Chemical Co., St. Louis, Mo
T1 sequence (P02070 whole entry): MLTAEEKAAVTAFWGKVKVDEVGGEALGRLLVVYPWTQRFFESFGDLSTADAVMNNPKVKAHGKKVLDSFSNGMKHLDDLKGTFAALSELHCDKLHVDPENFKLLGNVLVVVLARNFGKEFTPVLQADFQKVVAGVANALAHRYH
T1 sequence (P01966 2-142 limits assumed): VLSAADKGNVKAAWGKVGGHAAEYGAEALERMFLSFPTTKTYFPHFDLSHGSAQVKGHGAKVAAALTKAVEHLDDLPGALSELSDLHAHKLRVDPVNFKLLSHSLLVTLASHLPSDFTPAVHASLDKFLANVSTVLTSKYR
Description: Additional experiments were conducted to evaluate the reaction between S-nitrosothiols and hemoglobin. […] S-nitrosylation was verified, using standard methods for detection of S-nitrosothiols (Saville, Analyst 83:670-672 (1958)). The Saville method, which assays free NOx in solution, involves a diazotization reaction with sulfanilamide and subsequent coupling with the chromophore N-(1-naphthyl)ethylenediamine. The specificity for S-nitrosothiols derives from assay determinations performed in the presence and absence of HgCl2, the latter reagent catalyzing the hydrolysis of the S--NO bond.
For the purposes of comparison, equimolar concentrations of hemoglobin and NaNO2 were reacted in 0.5N HCl, to form nitrosyl-hemoglobin, and the UV spectrum was obtained.
Thus, the reaction between S-nitrosothiols and hemoglobin not only eliminates the inhibition of oxygen binding which occurs from the reaction with NO.cndot., but actually increases binding and oxygenation of the blood.

Molecule: Cn1c(=O)c2[nH]cnc2n(C)c1=O [theophylline]
plasma concentration at which unacceptable symptoms of toxicity usually appear [2]: ≥ 20000 ng/mL

Molecule: CC(C)NCC(O)c1ccc(O)c(O)c1 (stereo not shown) [isoproterenol, reference compound]
rank of relaxant activity among SNOAC, isoproterenol, theophylline ([1]; FIG. 8): most active relaxant

Molecule: hemoglobin: hemoglobin (bovine), established inhibitor of NO-induced relaxations
inhibition of relaxation responses to SNOAC [1]: inhibited | attenuation of the actions (relaxation) of SNOAC [1]: 10-20% | inhibition of S-nitrosothiol (SNOAC)-induced relaxation in human airways [3]: neither hemoglobin or methylene blue attenuated the relaxation effect; also recorded: had little effect

Molecule: [N]=O [NO, nitric oxide, reference compound]
half life [4]: on the order of seconds | reaction at the redox metal (iron-binding) site of hemoglobin (hemoglobin): reacted instantaneously with the redox metal site on hemoglobin

Molecule: CC(=O)N[C@@H](CS)C(=O)O [N-acetylcysteine, reference compound]
relaxant effect on human trachea, comparison with other agents [3]: caused significant constriction of the tracheal smooth muscle

Continued, in another order:

IC50 [1]: 3.2 ± 0.2 µM
Molecule: N[C@@H](CSN=O)C(=O)O [S-nitroso-cysteine]

IC50 [1]: 20 ± 0.7 µM
Molecule: C[C@H](CSN=O)C(=O)N1CCC[C@H]1C(=O)O [S-nitroso-captopril]

IC50 [1]: 0.99 ± 2 µM | IC50 [3]: 22 µM | half life [4]: on the order of hours
Molecule: N[C@@H](CCC(=O)N[C@@H](CSN=O)C(=O)NCC(=O)O)C(=O)O [S-nitroso-glutathione]
IC50 compared with theophylline [3]: approximately two orders of magnitude greater than theophylline | relaxant effect on human trachea, comparison with other agents [3]: significantly greater than nitrite (NO2) | relaxant effect on human trachea, comparison with other agents ([3]; listed as S-nitrosoglutathione): significantly greater than glutathione alone | relaxant effect on human trachea, comparison with other agents ([3]; listed as SNOGSH): significantly more potent than that of theophylline; also recorded: compares favorably with that exerted by isoproterenol

IC50 [1]: 2.1 ± 0.8 µM | IC50 [3]: 22 µM | half life [4]: on the order of hours
Molecule: CC(=O)N[C@@H](CSN=O)C(=O)O [S-nitroso-N-acetylcysteine]
persistence of relaxation ([1]; 5×10^-6 M, at one hour): significant residual loss of tone was still evident at one hour | time to maximal relaxation ([1]; 5×10^-6 M, followed over 60 minutes): maximal relaxation occurred by five minutes | relaxant activity of SNOAC relative to SNOCAP ([1]; contractions induced by leukotriene D4, histamine, methacholine, in every case): approximately 10 fold | relaxant activity relative to theophylline ([1]; identical study conditions, FIG. 8): approximately 50 times | IC50 compared with theophylline [3]: approximately two orders of magnitude greater than theophylline | relaxant effect on human trachea, comparison with other agents ([3]; listed as SNOAC): significantly greater than that of N-acetylcysteine; also recorded: significantly more potent than that of theophylline; also recorded: compares favorably with that exerted by isoproterenol | increase in cyclic GMP over basal levels (control) ([5]; guinea pig tracheal rings, 100 μM SNOAC, 90 seconds): 4 fold | increase in cyclic GMP over basal levels (control) (cGMP in human airways; human airways incubated with SNOAC): 4 fold | cGMP (cGMP in human airways; human airways, Table 3): 46 ± 17 Pmol/gm | duration and reversibility of relaxant effects [6]: temporary (lasting only for the duration of the procedure), completely reversible | systemic blood pressure, heart rate, oxygen saturation [6]: produced no change in systemic blood pressure, heart rate or oxygen saturation | colon motility ([6]; removal of colon polyps): eliminated colon motility | duodenal motility ([6]; topical administration): eliminated duodenal motility | contractile activity of the Sphincter of Oddi ([6]; topical administration, endoscopic cannulation): inhibited the contractile activity of the Sphincter of Oddi | reaction at the redox metal (iron-binding) site of hemoglobin (hemoglobin): no reaction at the redox metal (iron-binding site) of hemoglobin

effect on SNOAC-induced increase in cyclic GMP ([5]; pretreatment with methylene blue 10^-4 M, 30 minutes): attenuated
Molecule: CN(C)c1ccc2nc3ccc(=[N+](C)C)cc-3sc2c1 [methylene blue, reference compound]
inhibition of relaxation responses to SNOAC [1]: in a dose-dependent manner | attenuation of the actions (relaxation) of SNOAC [1]: 10-20% | inhibition of S-nitrosothiol (SNOAC)-induced relaxation in human airways [3]: neither hemoglobin or methylene blue attenuated the relaxation effect; also recorded: not significantly inhibited

IC50 [1]: 2.1 ± 0.3 µM
Molecule: N[C@@H](CCSN=O)C(=O)O [S-nitroso-homocysteine]
